Reference: PMC4254530 (Bioorganic & medicinal chemistry, 2014)

Experiments:
full length hCDK5/p25 = full length hCDK5/p25 (Homo sapiens, UniProt Q00535); assay: γ-33P ATP filter binding assay, hCDK5/p25; type: biochemical; conditions: for IC50: CDK5/p25 IC50, ATP (Km) 30 μM, Table 5; for inhibition at 50 µM: read-out: CDK5/p25 inhibition @50μM
CDK5/p25 = CDK5/p25 (Homo sapiens, UniProt Q00535); assay: ATP competitive binding assay; type: biochemical; conditions: IC50 at increasing ATP concentrations, Lineweaver-Burk plot
CDK1/B = CDK1/B (Homo sapiens, UniProt P06493); assay: Kinase selectivity assay CDK1/B; type: biochemical
CDK2/A = CDK2/A (Homo sapiens, UniProt P24941); assay: Kinase selectivity assay CDK2/A; type: biochemical; conditions: read-out: CDK2/A % inhibition at 20 μM
CDK2/E = CDK2/E (Homo sapiens, UniProt P24941); assay: Kinase selectivity assay CDK2/E; type: biochemical; conditions: read-out: CDK2/E % inhibition at 20 μM
CDK4/D1 = CDK4/D1 (Homo sapiens, UniProt P11802); assay: Kinase selectivity assay CDK4/D1; type: biochemical; conditions: 20 μM compound, ATP Km 90 μM
CDK6/D1 = CDK6/D1 (Homo sapiens, UniProt Q00534); assay: Kinase selectivity assay CDK6/D1; type: biochemical; conditions: 20 μM compound, ATP Km 30 μM
CK1a1 = CK1a1 (Homo sapiens, UniProt P48729); assay: Kinase selectivity assay CK1a1; type: biochemical; conditions: read-out: CK1a1 % inhibition at 20 μM
DYRK1/DYRK1A = DYRK1/DYRK1A (Homo sapiens, UniProt Q13627); assay: Kinase selectivity assay DYRK1/DYRK1A; type: biochemical; conditions: read-out: DYRK1/DYRK1A % inhibition at 20 μM
GSK3α = GSK3α (Homo sapiens, UniProt P49840); assay: Kinase selectivity assay GSK3α; type: biochemical; conditions: read-out: GSK3α % inhibition at 20 μM
GSK3β = GSK3β (Homo sapiens, UniProt P49841); assay: Kinase selectivity assay GSK3β; type: biochemical; conditions: read-out: GSK3β % inhibition at 20 μM
KDR/VEGFR2 = KDR/VEGFR2 (Homo sapiens, UniProt P35968); assay: Kinase selectivity assay KDR/VEGFR2; type: biochemical; conditions: read-out: KDR/VEGFR2 % inhibition at 20 μM
PKA = PKA (Homo sapiens, UniProt P17612); assay: Kinase selectivity assay PKA; type: biochemical
PKCα = PKCα (Homo sapiens, UniProt P17252); assay: Kinase selectivity assay PKCα; type: biochemical
PKCε = biological target: T1, PKCε (Homo sapiens, UniProt Q02156); assay: Kinase selectivity assay PKCε; type: biochemical; conditions: read-out: PKCε % inhibition at 20 μM
T1 sequence (Q02156 1-737): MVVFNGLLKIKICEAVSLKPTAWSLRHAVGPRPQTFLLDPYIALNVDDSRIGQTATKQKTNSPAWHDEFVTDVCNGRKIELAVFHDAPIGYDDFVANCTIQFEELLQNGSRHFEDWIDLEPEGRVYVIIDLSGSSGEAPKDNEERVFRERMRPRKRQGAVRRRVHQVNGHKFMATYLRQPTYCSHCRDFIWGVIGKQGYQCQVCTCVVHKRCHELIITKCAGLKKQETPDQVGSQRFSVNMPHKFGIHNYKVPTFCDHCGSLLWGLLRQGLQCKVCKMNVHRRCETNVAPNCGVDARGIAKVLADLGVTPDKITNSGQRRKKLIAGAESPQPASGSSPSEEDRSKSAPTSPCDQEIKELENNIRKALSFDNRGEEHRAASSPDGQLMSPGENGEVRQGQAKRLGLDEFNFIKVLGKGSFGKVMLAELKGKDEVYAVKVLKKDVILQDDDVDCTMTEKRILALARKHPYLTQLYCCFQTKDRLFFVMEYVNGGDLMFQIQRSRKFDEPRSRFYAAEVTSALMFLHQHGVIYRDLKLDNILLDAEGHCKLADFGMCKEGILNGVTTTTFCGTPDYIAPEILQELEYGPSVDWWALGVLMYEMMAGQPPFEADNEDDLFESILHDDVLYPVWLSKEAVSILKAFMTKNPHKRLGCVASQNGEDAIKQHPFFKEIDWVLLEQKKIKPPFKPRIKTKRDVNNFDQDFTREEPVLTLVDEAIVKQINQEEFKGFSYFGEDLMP

WEE1 = WEE1 (Homo sapiens, UniProt P30291); assay: Kinase selectivity assay WEE1; type: biochemical
full length hCDK2/E = full length hCDK2/E (Homo sapiens, UniProt P24941); assay: γ-33P ATP filter binding assay, hCDK2/E

CDK5/p25, sequence (Q00535 whole entry): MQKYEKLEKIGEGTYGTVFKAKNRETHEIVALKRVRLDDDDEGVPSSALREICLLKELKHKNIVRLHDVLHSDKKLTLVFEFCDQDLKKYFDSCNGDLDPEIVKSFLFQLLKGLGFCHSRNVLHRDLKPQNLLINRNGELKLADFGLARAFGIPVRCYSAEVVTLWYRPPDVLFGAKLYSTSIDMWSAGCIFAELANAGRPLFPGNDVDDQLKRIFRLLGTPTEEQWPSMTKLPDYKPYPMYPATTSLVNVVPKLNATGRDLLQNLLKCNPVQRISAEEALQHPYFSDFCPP
CDK5/p25, sequence (Q15078 99-307 partner limits assumed): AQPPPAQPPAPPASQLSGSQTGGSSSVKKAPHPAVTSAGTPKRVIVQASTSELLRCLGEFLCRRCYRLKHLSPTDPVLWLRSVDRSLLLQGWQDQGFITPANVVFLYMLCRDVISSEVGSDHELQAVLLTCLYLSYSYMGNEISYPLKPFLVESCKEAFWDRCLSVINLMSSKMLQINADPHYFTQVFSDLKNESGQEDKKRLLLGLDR
full length hCDK5/p25, sequence (Q00535 whole entry): as the sequence (Q00535 whole entry) above
full length hCDK5/p25, sequence (Q15078 99-307 partner limits assumed): as the sequence (Q15078 99-307 partner limits assumed) above
CDK4/D1, sequence (P11802 whole entry): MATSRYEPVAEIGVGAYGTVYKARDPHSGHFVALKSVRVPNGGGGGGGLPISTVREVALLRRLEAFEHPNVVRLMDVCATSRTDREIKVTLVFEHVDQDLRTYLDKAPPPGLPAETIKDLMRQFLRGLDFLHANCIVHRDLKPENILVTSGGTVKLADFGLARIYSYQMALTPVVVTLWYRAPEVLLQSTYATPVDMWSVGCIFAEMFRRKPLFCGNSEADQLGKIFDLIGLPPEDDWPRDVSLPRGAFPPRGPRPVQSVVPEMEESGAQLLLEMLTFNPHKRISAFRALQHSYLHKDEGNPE
CDK4/D1, sequence (P24385 whole entry partner): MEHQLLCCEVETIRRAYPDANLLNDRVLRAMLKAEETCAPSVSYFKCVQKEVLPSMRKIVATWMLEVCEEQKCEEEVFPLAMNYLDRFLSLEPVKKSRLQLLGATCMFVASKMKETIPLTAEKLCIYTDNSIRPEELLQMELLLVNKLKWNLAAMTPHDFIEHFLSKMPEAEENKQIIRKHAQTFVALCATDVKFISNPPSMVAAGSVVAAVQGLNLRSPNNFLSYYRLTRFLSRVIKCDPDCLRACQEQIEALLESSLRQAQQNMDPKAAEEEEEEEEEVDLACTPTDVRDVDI
WEE1, sequence (P30291 whole entry): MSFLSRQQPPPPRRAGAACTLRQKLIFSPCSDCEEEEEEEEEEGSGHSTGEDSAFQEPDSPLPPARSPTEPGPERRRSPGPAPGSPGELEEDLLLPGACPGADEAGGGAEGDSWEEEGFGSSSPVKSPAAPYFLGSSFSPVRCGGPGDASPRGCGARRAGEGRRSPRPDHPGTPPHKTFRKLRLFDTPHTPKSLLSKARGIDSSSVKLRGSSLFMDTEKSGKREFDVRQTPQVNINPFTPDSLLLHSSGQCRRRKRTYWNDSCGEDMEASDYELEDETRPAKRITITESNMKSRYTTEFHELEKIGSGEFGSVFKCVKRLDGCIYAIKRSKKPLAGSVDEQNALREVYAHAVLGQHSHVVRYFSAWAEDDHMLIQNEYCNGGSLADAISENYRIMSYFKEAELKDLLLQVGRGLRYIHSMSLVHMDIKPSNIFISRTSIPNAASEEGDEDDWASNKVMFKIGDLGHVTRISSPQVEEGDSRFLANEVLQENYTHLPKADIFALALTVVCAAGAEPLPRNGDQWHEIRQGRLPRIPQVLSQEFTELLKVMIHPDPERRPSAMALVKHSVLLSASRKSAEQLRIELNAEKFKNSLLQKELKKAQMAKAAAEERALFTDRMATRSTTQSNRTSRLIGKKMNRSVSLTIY
CDK6/D1, sequence (Q00534 whole entry): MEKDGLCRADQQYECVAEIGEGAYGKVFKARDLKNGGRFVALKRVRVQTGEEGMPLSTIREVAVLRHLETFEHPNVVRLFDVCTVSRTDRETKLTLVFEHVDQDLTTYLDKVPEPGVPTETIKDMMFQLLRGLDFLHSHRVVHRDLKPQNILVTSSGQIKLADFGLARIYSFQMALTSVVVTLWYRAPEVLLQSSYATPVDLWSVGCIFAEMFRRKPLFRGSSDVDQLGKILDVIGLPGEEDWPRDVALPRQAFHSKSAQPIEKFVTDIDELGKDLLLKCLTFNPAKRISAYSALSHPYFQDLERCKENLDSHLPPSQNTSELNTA
CDK6/D1, sequence (P24385 whole entry partner): as the sequence (P24385 whole entry partner) above
CK1a1, sequence (P48729 whole entry): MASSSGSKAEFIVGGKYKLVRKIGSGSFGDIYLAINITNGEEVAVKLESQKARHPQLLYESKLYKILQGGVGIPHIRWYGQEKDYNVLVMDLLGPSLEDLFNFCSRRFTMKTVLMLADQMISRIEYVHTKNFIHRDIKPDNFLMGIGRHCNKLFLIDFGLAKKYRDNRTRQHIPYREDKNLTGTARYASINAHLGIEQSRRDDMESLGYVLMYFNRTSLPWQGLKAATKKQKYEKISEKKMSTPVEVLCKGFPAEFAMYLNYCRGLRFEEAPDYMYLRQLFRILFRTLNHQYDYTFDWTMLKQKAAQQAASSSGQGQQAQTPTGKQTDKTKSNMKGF
CDK1/B, sequence (P06493 whole entry): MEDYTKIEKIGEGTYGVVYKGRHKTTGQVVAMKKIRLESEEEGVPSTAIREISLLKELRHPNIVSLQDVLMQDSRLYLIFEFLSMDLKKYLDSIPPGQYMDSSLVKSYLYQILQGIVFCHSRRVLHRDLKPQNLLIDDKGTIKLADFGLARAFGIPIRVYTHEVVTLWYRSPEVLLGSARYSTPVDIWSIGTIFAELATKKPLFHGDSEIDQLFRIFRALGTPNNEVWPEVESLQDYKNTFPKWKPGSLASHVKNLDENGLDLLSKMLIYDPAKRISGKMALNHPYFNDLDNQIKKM
CDK1/B, sequence (P14635 whole entry partner): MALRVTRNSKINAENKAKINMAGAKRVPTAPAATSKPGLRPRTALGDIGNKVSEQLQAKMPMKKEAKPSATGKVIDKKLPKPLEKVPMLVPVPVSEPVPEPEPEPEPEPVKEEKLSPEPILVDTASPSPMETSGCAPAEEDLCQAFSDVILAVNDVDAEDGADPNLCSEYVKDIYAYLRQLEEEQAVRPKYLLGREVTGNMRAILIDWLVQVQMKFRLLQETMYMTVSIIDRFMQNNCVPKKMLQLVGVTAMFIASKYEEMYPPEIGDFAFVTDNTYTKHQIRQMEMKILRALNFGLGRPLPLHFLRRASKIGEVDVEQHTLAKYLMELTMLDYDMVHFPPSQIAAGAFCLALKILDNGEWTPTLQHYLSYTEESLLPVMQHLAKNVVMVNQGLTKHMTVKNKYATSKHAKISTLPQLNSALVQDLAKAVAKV
GSK3α, sequence (P49840 whole entry): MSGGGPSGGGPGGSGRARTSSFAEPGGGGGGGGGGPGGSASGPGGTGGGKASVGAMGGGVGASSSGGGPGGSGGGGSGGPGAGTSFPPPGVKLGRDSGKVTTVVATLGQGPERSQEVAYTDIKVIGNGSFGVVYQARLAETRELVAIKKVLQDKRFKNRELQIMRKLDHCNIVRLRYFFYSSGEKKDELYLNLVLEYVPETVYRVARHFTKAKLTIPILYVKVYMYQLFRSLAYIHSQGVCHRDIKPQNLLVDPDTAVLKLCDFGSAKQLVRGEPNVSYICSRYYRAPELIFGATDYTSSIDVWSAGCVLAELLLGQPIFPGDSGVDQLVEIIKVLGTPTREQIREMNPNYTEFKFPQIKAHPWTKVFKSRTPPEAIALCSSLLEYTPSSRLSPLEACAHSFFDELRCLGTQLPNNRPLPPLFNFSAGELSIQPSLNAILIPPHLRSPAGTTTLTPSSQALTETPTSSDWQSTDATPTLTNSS

IC50 (full length hCDK5/p25) | inhibition at 50 µM (full length hCDK5/p25) | mode of inhibition with respect to ATP (CDK5/p25) | inhibition at 20 µM (CDK2/A) | inhibition at 20 µM (CDK2/E) | CDK4/D1 % inhibition at 20 μM (CDK4/D1) | CDK6/D1 % inhibition at 20 μM (CDK6/D1) | inhibition at 20 µM (CK1a1) | inhibition at 20 µM (DYRK1/DYRK1A) | inhibition at 20 µM (GSK3α) | inhibition at 20 µM (GSK3β) | inhibition at 20 µM (KDR/VEGFR2) | inhibition at 20 µM (PKCε) | SMILES | also measured
4.3 µM | 70.6% | ATP non-competitive inhibition | 50% | 5% | No inhibition | No inhibition | 41% | 23% | 79% | 81% | 88% | 7% | O=C(Nc1ccccc1C(=O)O)c1cc2c(=O)[nH]c3ccccc3c2s1 [Compound 25s, 2-(4-oxo-4,5-dihydrothieno[3,2-c]quinoline-2-carboxamido)benzoic acid] | CDK1/B % inhibition at 20 μM (CDK1/B; 20 μM compound, ATP Km 5 μM): No inhibition; inhibition at 20 µM (PKA; read-out: PKA % inhibition at 20 μM): 89%; PKCα % inhibition at 20 μM (PKCα; 20 μM compound, ATP Km 10 μM): No inhibition; WEE1 % inhibition at 20 μM (WEE1; 20 μM compound, ATP Km 50 μM): No inhibition; CDK2/E inhibition @50μM (full length hCDK2/E; 50 μM compound, ATP (Km) 65 μM, Table 5): No inhibition
3.8 µM | 75.4% | ATP non-competitive inhibition | 45% | 6% | No inhibition | No inhibition | 19% | 4% | 22% | 41% | 44% | 4% | O=C(Nc1ccccn1)c1cc2c(Cl)nc3ccccc3c2s1 [Compound 25w, 4-chloro-N-(pyridin-2-yl)thieno[3,2-c]quinoline-2-carboxamide] | inhibition at 20 µM (CDK1/B; read-out: CDK1/B % inhibition at 20 μM): 35%; PKA % inhibition at 20 μM (PKA; 20 μM compound, ATP Km 20 μM): No inhibition; inhibition at 20 µM (PKCα; read-out: PKCα % inhibition at 20 μM): 1%; inhibition at 20 µM (WEE1; read-out: WEE1 % inhibition at 20 μM): 2%; inhibition at 50 µM (full length hCDK2/E; read-out: CDK2/E inhibition @50μM, 50 μM compound, ATP (Km) 65 μM, Table 5): 21.8%
